Results: patent US9643968B2, “Fused acridine derivative and pharmaceutical composition, preparation method and use thereof” (Peking University, priority 2014, dated 2017)

Assays:
[1] = system: PC-3 (human prostate cancer); test: MTT in vitro cytotoxicity, PC-3; format: cell-based; details: 72 hr incubation, read-out: IC50 PC3
Method: (§1) Materials and methods: MTT (3-[4,5-dimethylthiazol-2-yl]-diphenyl tetrazolium bromide) method was employed to determine the antiproliferative activity of all the compounds of the Examples and Contrasting Examples in vitro against selected cell lines, including HCT116 (human colon cancer cell), PC-3 (human prostate cancer), HepG2 (human hepatocellular carcinoma), SK-OV-3 (human ovarian adenocarcinoma), MCF-7 (human breast cancer), U87MG (human glioblastoma cell) cell lines.
(§2) Procedure: Human tumor cells of HCT116, PC-3, HepG2, SK-OV-3, MCF-7, and U87MG were in vitro cultured, and collected until the cells grow to the logarithmic phase. The cells were centrifuged for 5 minutes at 1000 rpm, and supernatant was discarded. Subsequently appropriate culture medium was added to suspend the precipitation, and the concentration of cells was adjusted to 3.5˜5.5×10^4/mL. the suspensions of cells were seeded in 96-well microplate at 100 μL per well, and incubated in incubator (37° C., 5% CO2) for 24 hr. The compound to test was added. For the control group, equivalent concentration of DMSO (final concentration 0.5%) was added. For each group, three copy wells were set. After incubated for 72 hr, 20 μL 5 mg/mL of MTT was added into each well, and placed at 37° C. for 3 hr. 150 μL of DMSO was added into each wells, and vibrated the shaker at 37° C. for 5 mins, then measured the absorbance (OD) value at 492 nm/620 nm. The IC50 values were calculated using Prism 5.0 software.

[2] = system: HCT116 (human colon cancer cell); test: MTT in vitro cytotoxicity, HCT116; format: cell-based; details: HCT-116, 72 hr incubation
Method: as §1, §2

[3] = system: HepG2 (human hepatocellular carcinoma); test: MTT in vitro cytotoxicity, HepG2; format: cell-based; details: 72 hr incubation
Method: as §1, §2

[4] = system: U87MG (human glioblastoma cell); test: MTT in vitro cytotoxicity, U87MG; format: cell-based; details: U-87 MG, 72 hr incubation
Method: as §1, §2

[5] = system: SK-OV-3 (human ovarian adenocarcinoma); test: MTT in vitro cytotoxicity, SK-OV-3; format: cell-based; details: 72 hr incubation
Method: as §1, §2

[6] = system: tumor cells (U87MG); test: Assay for inhibiting cancer cell clone formation (soft agar); format: cell-based, human; details: concentration range from 0.020 to 0.090 μM, 10-14 days
Method: Materials and methods: The tested tumor cells (U87MG) in the logarithmic phase were digested with 0.25% trypsin then percussed gently to the single cell state, and counted the live cells. The cells density was adjusted to 1×10^6[…] with DMEM containing 20% fetal bovine serum, and then diluted gradiently according to the experiment requirement.
Two concentrations (1.2% and 0.7%) of low melting point agarose fluid were prepared with distilled water respectively. A mixture of 1.2% agarose fluid and 2×DMEM medium (contains 2× antibiotics and 20% calf serum) was prepared in 1:1 ratio, then transferred (3 mL) into 6 cm diameter flat dishes, cooled to solidification to furnish the bottom agar which was stored in a CO2 incubator. The cell suspension (0.2 mL) was added to a mixture of 0.7% agarose and 2×DMEM medium which was prepared in 1:1 ratio in sterile tubes, and thoroughly mixed before injection to the precoated dishes to form the double layer agar. After the upper agar being solidified, the dishes were incubated in 37° C. and 5% CO2 for 10-14 days, each experiment was performed in 3-6 times.
The number of clones was counted under an inverted microscope. The clone formation rate was calculated.

`O=C1c2c3cccc(F)c3nc3cccc(c23)N1CCN1CCCCC1` [Compound 4d, 7-fluoro-2-(2-(piperidin-1-yl)ethyl)pyrrolo[2,3,4-kl]acridin-1-(2H)-one] gave an IC50 [1] of 4.7 µM, an IC50 [2] of 1210 nM and an IC50 [3] of 3580 nM. It also gave an IC50 [4] of 1780 nM.
With `O=C1c2c3ccccc3nc3cccc(c23)N1CCCN1CCCC1` [Compound 1h, 2-(3-(pyrrolidin-1-yl)propyl)pyrrolo[2,3,4-kl]acridin-1-(2H)-one] the IC50 [1] was 11.9 µM, the IC50 [2] was 1800 nM and the IC50 [3] was 8150 nM. For the same molecule, the IC50 [5] was 11.9 µM and the IC50 [4] was 10200 nM.
`O=C1c2c3ccccc3nc3cccc(c23)N1CCCN1CCOCC1` [Compound 1b, 2-(3-morpholinopropyl)pyrrolo[2,3,4-kl]acridin-1-(2H)-one] gave an IC50 [1] of 3.01 µM, an IC50 [2] of 1870 nM and an IC50 [3] of 2780 nM. It also gave an IC50 [5] of 8.43 µM and an IC50 [4] of 1780 nM.
In the case of `Cc1ccc2nc3cccc4c3c(c2c1)C(=O)N4CCN(C)C` [Compound 2a, 2-(2-(dimethylamino)ethyl)-9-methylpyrrolo[2,3,4-kl]acridin-1-(2H)-one], the IC50 [1] is reported as 3.52 µM, the IC50 [2] is reported as 1050 nM and the IC50 [3] is reported as 2820 nM. For the same molecule, the IC50 [4] was 2050 nM.
With `CN(C)CCN1C(=O)c2c3ccccc3nc3cccc1c23` [Compound 1a, 2-(2-(dimethylamino)ethyl)pyrrolo[2,3,4-kl]acridin-1-(2H)-one] the IC50 [1] was 14.5 µM, the IC50 [2] was 7410 nM and the IC50 [3] was 6350 nM. It also gave an IC50 [5] of 14.8 µM and an IC50 [4] of 582 nM.
Work on `COc1ccc2nc3c(C)ccc4c3c(c2c1)C(=O)N4CCN(C)C` [Compound 5c, 2-(2-(dimethylamino)ethyl)-9-methoxy-5-methylpyrrolo[2,3,4-kl]-acridin-1-(2H)-one] yielded an IC50 [1] of 0.689 µM, an IC50 [2] of 165 nM and an IC50 [3] of 232 nM. It also gave an IC50 [4] of 269 nM.
Molecule `CN(C)CCN1C(=O)c2c3ccccc3nc3c([N+](=O)[O-])ccc1c23` [Compound 2e] has an IC50 [1] of 0.998 µM, an IC50 [2] of 1340 nM and an IC50 [3] of 1860 nM. It also gave an IC50 [4] of 1740 nM.
For `CN(C)CCN1C(=O)c2c3cccc(F)c3nc3cccc1c23` [Compound 2d, 2-(2-(dimethylamino)ethyl)-7-fluoropyrrolo[2,3,4-kl]acridin-1-(2H)-one], the IC50 [1] was 1.85 µM, the IC50 [2] was 951 nM and the IC50 [3] was 1410 nM. The “inhibition of glioma cell clone formation” value (shortened to “inhibition”) [6] was “significantly inhibited” and the IC50 [4] was 1700 nM.
Work on `O=C1c2c3ccccc3nc3cccc(c23)N1CCN1CCCCC1` [Compound 1f, 2-(2-(piperidin-1-yl)ethyl)pyrrolo[2,3,4-kl]acridin-1-(2H)-one] yielded an IC50 [1] of 3.19 µM, an IC50 [2] of 1130 nM and an IC50 [3] of 2270 nM. It also gave an IC50 [5] of 3.65 µM and an IC50 [4] of 3930 nM.
With `O=C1c2c3cc(Cl)ccc3nc3cccc(c23)N1CCN1CCCCC1` [Compound 4b, 9-chloro-2-(2-(piperidin-1-yl)ethyl)pyrrolo[2,3,4-kl]acridin-1-(2H)-one] the IC50 [1] was 2.88 µM, the IC50 [2] was 1380 nM and the IC50 [3] was 2250 nM. For the same molecule, the IC50 [4] was 1890 nM.
`CN(C)CCCN1C(=O)c2c3cc(Cl)ccc3nc3cccc1c23.O=C(O)/C=C/C(=O)O` [Compound 3b′, 9-chloro-2-(3-(dimethylamino)propyl)pyrrolo[2,3,4-kl]acridin-1-(2H)-one fumarate] was tested, and the “inhibition” value [6] was “significantly inhibited”.
Molecule `Cc1ccc2c3c(c4cc(Cl)ccc4nc13)C(=O)N2CCN(C)C` [Compound 5b, 9-chloro-2-(2-(dimethylamino)ethyl)-5-methylpyrrolo[2,3,4-kl]-acridin-1-(2H)-one] has an IC50 [1] of 2.24 µM, an IC50 [2] of 930 nM and an IC50 [3] of 1170 nM. For the same molecule, the “inhibition” value [6] was “significantly inhibited” and the IC50 [4] was 1270 nM.
`CCCCN1C(=O)c2c3ccccc3nc3cccc1c23` [Compound 6a, 2-butylpyrrolo[2,3,4-kl]acridin-1-(2H)-one, reference compound] was tested, and the IC50 [1] was over 50 µM, the IC50 [2] was over 50000 nM and the IC50 [3] was over 50000 nM. For the same molecule, the IC50 [5] was over 50 µM and the IC50 [4] was over 50000 nM.
`COc1ccc2nc3cccc4c3c(c2c1)C(=O)N4CCN1CCCCC1` [Compound 4c, 9-methoxy-2-(2-(piperidin-1-yl)ethyl)pyrrolo[2,3,4-kl]acridin-1-(2H)-one] showed an IC50 [1] of 1.4 µM, an IC50 [2] of 284 nM and an IC50 [3] of 1500 nM. The IC50 [4] was 497 nM.
Work on `CN(C)CCN1C(=O)c2c3cc(Cl)ccc3nc3cccc1c23` [Compound 2b, 9-chloro-2-(2-(dimethylamino)ethyl)pyrrolo[2,3,4-kl]acridin-1-(2H)-one] yielded an IC50 [1] of 1.22 µM, an IC50 [2] of 859 nM and an IC50 [3] of 1080 nM. The “inhibition” value [6] was “significantly inhibited” and the IC50 [4] was 1450 nM.
`Cc1ccc2nc3cccc4c3c(c2c1)C(=O)N4CCN1CCCCC1` [Compound 4a, 9-methyl-2-(2-(piperidin-1-yl)ethyl)pyrrolo[2,3,4-kl]acridin-1-(2H)-one] showed an IC50 [1] of 4.13 µM, an IC50 [2] of 1420 nM and an IC50 [3] of 2570 nM. It also gave an IC50 [4] of 1330 nM.
For `Cc1ccc2c3c(c4ccccc4nc13)C(=O)N2CCN(C)C` [Compound 5e, 2-(2-(dimethylamino)ethyl)-5-methylpyrrolo[2,3,4-kl]-acridin-1-(2H)-one], the IC50 [1] was 1.66 µM, the IC50 [2] was 767 nM and the IC50 [3] was 1280 nM. For the same molecule, the “inhibition” value [6] was “significantly inhibited” and the IC50 [4] was 959 nM.
Molecule `O=C1c2c3ccccc3nc3cccc(c23)N1CCN1CCCC1` [Compound 1g, 2-(2-(pyrrolidin-1-yl)ethyl)pyrrolo[2,3,4-kl]acridin-1-(2H)-one] has an IC50 [1] of 3.99 µM, an IC50 [2] of 946 nM and an IC50 [3] of 2160 nM. For the same molecule, the IC50 [5] was 6.52 µM.
`COc1ccc2nc3cccc4c3c(c2c1)C(=O)N4CCCN(C)C` [Compound 3c, 2-(3-(dimethylamino)propyl)-9-methoxypyrrolo[2,3,4-kl]acridin-1-(2H)-one] was tested, and the IC50 [1] was 3.47 µM, the IC50 [2] was 1110 nM and the IC50 [3] was 1830 nM. For the same molecule, the IC50 [4] was 1850 nM.
Work on `Cc1ccc2c3c(c4cccc(F)c4nc13)C(=O)N2CCN(C)C` [Compound 5d, 2-(2-(dimethylamino)ethyl)-7-fluoro-5-methylpyrrolo[2,3,4-kl]-acridin-1-(2H)-one] yielded an IC50 [1] of 2.51 µM, an IC50 [2] of 1000 nM and an IC50 [3] of 1720 nM. The “inhibition” value [6] was “significantly inhibited” and the IC50 [4] was 1420 nM.
With `CN(C)CCCN1C(=O)c2c3cc(Cl)ccc3nc3cccc1c23` [Compound 3b, 9-chloro-2-(3-(dimethylamino)propyl)pyrrolo[2,3,4-kl]acridin-1-(2H)-one] the IC50 [1] was 2.33 µM, the IC50 [2] was 1320 nM and the IC50 [3] was 1470 nM. The IC50 [4] was 1580 nM.
In the case of `CN(C)CCCN1C(=O)c2c3cccc(F)c3nc3cccc1c23` [Compound 3d, 2-(3-(dimethylamino)propyl)-7-fluoropyrrolo[2,3,4-kl]acridin-1-(2H)-one], the IC50 [1] is reported as 4.99 µM, the IC50 [2] is reported as 1490 nM and the IC50 [3] is reported as 2100 nM. For the same molecule, the IC50 [4] was 2360 nM.
For `Cc1ccc2nc3c(C)ccc4c3c(c2c1)C(=O)N4CCN(C)C` [Compound 5a, 2-(2-(dimethylamino)ethyl)-5,9-dimethylpyrrolo[2,3,4-kl]-acridin-1-(2H)-one], the IC50 [1] was 2.9 µM, the IC50 [2] was 1060 nM and the IC50 [3] was 1940 nM. For the same molecule, the “inhibition” value [6] was “significantly inhibited” and the IC50 [4] was 1480 nM.
With `Cc1ccc2nc3cccc4c3c(c2c1)C(=O)N4CCCN(C)C` [Compound 3a, 2-(3-(dimethylamino)propyl)-9-methylpyrrolo[2,3,4-kl]acridin-1-(2H)-one] the IC50 [1] was 8.21 µM, the IC50 [2] was 1380 nM and the IC50 [3] was 2850 nM. The IC50 [4] was 2190 nM.
In the case of `O=C1c2c3ccccc3nc3cccc(c23)N1c1ccccc1` [Compound 6b, 2-phenylpyrrolo[2,3,4-kl]acridin-1-(2H)-one, reference compound], the IC50 [1] is reported as over 50 µM, the IC50 [2] is reported as over 50000 nM and the IC50 [3] is reported as over 50000 nM. It also gave an IC50 [5] of over 50 µM and an IC50 [4] of over 50000 nM.
